Data on four compounds can be found in patent US7858649B2, “Imidazole derivatives and their use for modulating the GABAA receptor complex” (Neurosearch A/S, priority 2005, dated 2010).

Data set [1] addresses benzodiazepine binding site on GABAA receptors (rat cerebral cortex membranes). Nature of the data set: In vitro inhibition of 3H-flunitrazepam (3H-FNM) binding. The settings on record: inhibition of specific binding of 3H-FNM (1 nM), cerebral cortex membranes from male Wistar rats, 40 min at 2° C. The method, then:
In Vitro Inhibition of ^3H-flunitrazepam (^3H-FNM) Binding
The GABA recognition site and the benzodiazepine modulatory unit can selectively be labelled with ^3H-flunitrazepam.
Preparations are performed at 0-4° C. unless otherwise indicated. Cerebral cortex from male Wistar rats (150-200 g) is homogenised for 5-10 sec in 20 ml Tris-HCl (30 mM, pH 7.4) using an Ultra-Turrax homogeniser. The suspension is centrifuged at 27,000×g for 15 min and the pellet is washed three times with buffer (centrifuged at 27,000×g for 10 min). The washed pellet is homogenized in 20 ml of buffer and incubated on a water bath (37° C.) for 30 min to remove endogenous GABA and then centrifuged for 10 min at 27,000×g. The pellet is then homogenized in buffer and centrifuged for 10 min at 27,000×g. The final pellet is resuspended in 30 ml buffer and the preparation is frozen and stored at −20° C.
The membrane preparation is thawed and centrifuged at 2° C. for 10 min at 27,000×g. The pellet is washed twice with 20 ml 50 mM Tris-citrate, pH 7.1 using an Ultra-Turrax homogeniser and centrifuged for 10 min at 27,000×g. The final pellet is resuspended in 50 mM Tris-citrate, pH 7.1 (500 ml buffer per g of original tissue), and then used for binding assays. Aliquots of 0.5 ml tissue are added to 25 μl of test solution and 25 μl of ^3H-FNM (1 nM, final concentration), mixed and incubated for 40 min at 2° C. Non-specific binding is determined using Clonazepam (1 μM, final concentration). After incubation the samples are added 5 ml of ice-cold buffer and poured directly onto Whatman GF/C glass fibre filters under suction and immediately washed with 5 ml ice-cold buffer. The amount of radioactivity on the filters is determined by conventional liquid scintillation counting. Specific binding is total binding minus non-specific binding.
25-75% inhibition of specific binding must be obtained, before calculation of an IC50.
The test value will be given as IC50 (the concentration (μM) of the test substance which inhibits the specific binding of ^3H-FNM by 50%).
Co is specific binding in control assays, and […]

In turn, `Cc1noc(-c2cn(-c3cccc(-c4ccccc4F)c3)cn2)n1` [3-Methyl-5-[1-(2′-fluoro-biphenyl-3-yl)-1H-imidazol-4-yl]-[1,2,4]oxadiazole] displayed a half-inhibitory concentration (IC50) in data set [1] of 33 nM. `Cc1noc(-c2cn(-c3cccc(Br)c3)cn2)n1` registered a melting point of 200.1 to 202.4 °C.

For the compound `Cc1noc(-c2cn(-c3cccc(-c4ccccc4OC(F)(F)F)c3)cn2)n1` [3-Methyl-5-[1-(2′-trifluoromethoxy-biphenyl-3-yl)-1H-imidazol-4-yl]-[1,2,4]oxadiazole], the melting point was 141.6 to 143.9 °C. In data set [1], this compound gave an IC50 of 17 nM. As for `Cc1noc(-c2cn(-c3cccc(-c4ccc(F)nc4)c3)cn2)n1` [2-Fluoro-5-{3-[4-(3-methyl-[1,2,4]oxadiazol-5-yl)-imidazol-1-yl]-phenyl}-pyridine], the concentration for half-maximal inhibition (IC50) in data set [1] came out at 60 nM.

By IC50 is commonly meant the concentration that inhibits the measured activity by half. A lower IC50 goes with greater potency. One may read the melting point as the temperature, or range, at which the solid turns liquid.
